1 compound from patent publication US20260132103A1, “Bumetanide Derivatives for the Therapy of Stroke and Other Neurological Diseases/Disorders Involving NKCCs” (University of Pittsburgh - Of the Commonwealth System of …, priority 2018, published 2026) can be followed below.

One assay has as its system GL26 and SB28-GFP cells. Description: BrdU proliferation assay. Type of assay: cell-based, mouse. Particulars: 48 h drug treatment, compared to BMT. As for the experimental part: FIG. 7: BrdU incorporation of GL26 cells and SB28-GFP cells following 48 h drug treatment. Data are means±SEM from three independent experiments. **P<0.01, ***p<0.001, ****p<0.0001.
Cell proliferation of GL26 and SB28-GFP cells was measured by quantifying BrdU incorporation. GL26 cells (5×10^3 cells/well) or SB28-GFP cells (1×10^3 cells/well) were seeded in 96-well plates in 100 μL media. After 24 hours in culture, cells were incubated with fresh medium plus the following reagents: DMSO vehicle (Con-Veh), BMT (B, 10 μM), TMZ (100 μM), or TMZ+B for 48 h. BrdU was added in the last 4 h period of the whole 48 h incubation. The incorporation of BrdU into newly synthesized DNA of proliferating cells was detected by using a peroxidase-conjugated antibody which reacts with the thymidine analogue BrdU. Bound anti-BrdU-peroxidase conjugated antibody was measured by a substrate reaction, and then quantified colorimetrically by an ELISA plate reader (Spectra MAX 190, Molecular Devices, Sunnyvale, CA) at dual wavelength of 450/550 nm.

Assay [1] deals with T1, pNKCC1 and tNKCC1 proteins (Mus musculus, UniProt P55012).
T1 construct: cell lysates were harvested for immunoblotting of pNKCC1 and tNKCC1 proteins; endogenous in cells; host or cells: GL26 and SB28-GFP mouse glioma cells
T1 sequence (P55012 1-1205): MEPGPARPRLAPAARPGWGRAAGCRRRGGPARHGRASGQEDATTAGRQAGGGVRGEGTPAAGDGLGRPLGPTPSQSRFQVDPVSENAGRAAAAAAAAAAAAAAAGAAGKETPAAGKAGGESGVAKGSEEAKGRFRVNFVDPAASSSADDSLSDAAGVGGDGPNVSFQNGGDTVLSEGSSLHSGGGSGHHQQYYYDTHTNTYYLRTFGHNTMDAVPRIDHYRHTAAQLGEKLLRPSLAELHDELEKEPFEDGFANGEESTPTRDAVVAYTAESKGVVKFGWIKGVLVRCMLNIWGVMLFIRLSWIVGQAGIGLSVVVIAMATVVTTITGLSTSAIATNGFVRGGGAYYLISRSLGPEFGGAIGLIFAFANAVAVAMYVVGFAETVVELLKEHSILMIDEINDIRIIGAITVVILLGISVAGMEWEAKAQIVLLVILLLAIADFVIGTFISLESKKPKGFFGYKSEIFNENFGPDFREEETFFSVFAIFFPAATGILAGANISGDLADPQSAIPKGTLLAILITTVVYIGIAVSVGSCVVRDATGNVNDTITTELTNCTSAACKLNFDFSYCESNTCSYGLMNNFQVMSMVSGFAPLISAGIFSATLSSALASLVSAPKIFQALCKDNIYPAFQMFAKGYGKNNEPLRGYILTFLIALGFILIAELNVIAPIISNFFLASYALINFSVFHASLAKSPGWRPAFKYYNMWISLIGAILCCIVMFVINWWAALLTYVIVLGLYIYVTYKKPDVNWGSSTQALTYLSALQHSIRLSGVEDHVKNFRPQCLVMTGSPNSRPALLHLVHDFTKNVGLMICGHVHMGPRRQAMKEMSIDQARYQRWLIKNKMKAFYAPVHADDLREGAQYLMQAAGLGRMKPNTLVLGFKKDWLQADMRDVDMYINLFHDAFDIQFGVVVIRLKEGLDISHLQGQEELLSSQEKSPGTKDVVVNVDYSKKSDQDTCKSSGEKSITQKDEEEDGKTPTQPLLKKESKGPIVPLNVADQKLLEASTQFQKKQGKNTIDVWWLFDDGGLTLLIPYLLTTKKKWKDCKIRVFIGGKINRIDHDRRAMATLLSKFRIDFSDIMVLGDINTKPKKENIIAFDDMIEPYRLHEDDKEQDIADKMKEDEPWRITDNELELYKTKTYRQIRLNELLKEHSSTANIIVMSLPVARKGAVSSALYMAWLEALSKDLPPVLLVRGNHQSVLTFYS
Description: Immunoblotting of pNKCC1 and tNKCC1. In kind it is cell-based. The following applies: GL26 and SB28-GFP cells, 6 h; BMT 10 μM, STS66 10 μM, TMZ 100 μM or combined. As for the experimental part:
FIGS. 6A-6B: GL26 and SB28-GFP cells were exposed to BMT (10 μM), STS66 (10 μM), TMZ (100 μM) or combined for 6 h and cell lysates were harvested for immunoblotting of pNKCC1 and tNKCC1 proteins. Data are means±SEM from six independent experiments. *P<0.05, **P<0.01, ***P<0.001.
GL26 and SB28-GFP cells were washed with ice-cold PBS and incubated in RIPA buffer containing 1 pill of phosSTOP and 2 mM protease inhibitors as described before (Algharabli et al. 2012). Cells were lysed by sonication at 4° C. Protein content of the cellular lysate was determined with BCA Protein Assay Kit. Samples and sample buffer (Thermo Scientific, Rockford, IL, USA) were boiled at 95° C. for 5 min. The samples were then electrophoretically separated on 10% SDS gels. After transferring to PVDF membranes, the blots were blocked in 10% nonfat dry milk in TBS-T (Tris-buffered saline, 0.05% Tween-20) for 1 hour at room temperature and then incubated with appropriate primary antibodies (pNKCC1, 1:300 and tNKCC1, 1:3000) at 4° C. overnight. After rinsing with TBS-T, the blots were incubated with horseradish peroxidase-conjugated secondary IgG (1:2000) for 1 hr at RT. Bound antibody was visualized with an enhanced chemiluminescence assay. Protein band signal intensities were analyzed using ImageJ and normalized to α-tubulin expression.
For orientation: Immunoblotting shows a protein as a band on a membrane.

As for `CCCCNc1cc(CNCC(F)(F)F)cc(S(N)(=O)=O)c1Oc1ccccc1` [STS66, 3-(Butylamino)-2-phenoxy-5-[(2,2,2-trifluoroethylamino)methyl]benzenesulfonamide], the “inhibition of cell proliferation (BrdU incorporation)” value in the assay with GL26 and SB28-GFP cells was “more inhibition of GL26 and SB28-GFP cell proliferation than BMT”. In addition, in assay [1], the “pNKCC1 and tNKCC1 expression” value is “did not show significant decrease”.
